{
  "source": "paper PMC6839174",
  "about": "“Targeting the Formyl Peptide Receptor type 1 to prevent the adhesion of ovarian cancer cells onto mesothelium and subsequent invasion” (Journal of Experimental & Clinical Cancer Research : CR, 2019)",
  "key": {"SKOV-3 cells [1]": {"test_system": "SKOV-3 cells", "test": "Adhesion of SKOV-3 cells onto extracellular matrix proteins (24-well plates, cell counting)", "type": "cell-based, Human", "protocol": "Adhesion assays were performed using 24 multi-well plates coated with 1% BSA, 5 μg mL vitronectin (Vn), 5 μg mL fibronectin (Fn), 5 μg mL laminin (Lm) or 15 μg mL collagen (Coll) diluted in serum-free medium. Sub-confluent cells were harvested by a mild trypsinization, incubated with 10% FBS / DMEM for 1 h at 37 °C, 5% CO2, acid treated with a buffer containing 50 mM glycin-HC1, 0.1 M NaCl, pH 3 for 4 min at 22 °C, to remove receptor-bound ligands, and counted. Viable cells (2 × 10^5 cells per well) were plated in serum-free medium, in the absence or presence of 2 μg/mL R3 mAb recognizing the DI uPAR domain, 2 μg/mL399 anti-uPAR (American Diagnostica), 2 μg/mL anti-uPAR84-95 (PRIMM), 2 μg/mL anti-α-tubulin (Cell Signaling) Abs or 10 nM RI-3, and allowed to adhere for 2 h at 37 °C, 5% CO2. […] At the end of the assay, adherent cells were removed with 0.05% trypsin, and counted. The number of adherent cells was expressed as a percentage of the basal cell adhesion (CTRL). The experiments were performed at least three times in triplicate."}, "primary EOC cells": {"test_system": "primary EOC cells", "test": "GFP-EOC (primary) cell adhesion onto mesothelium (HPMC monolayer)", "type": "cell-based, human", "conditions": "three independent experiments in triplicate", "protocol": "(§1) HPMCs (1 × 10^5 cells/well) suspended in growth medium, were seeded in 24-well plates and allowed to adhere for about 20 h until they form a confluent monolayer, prior to seeding GFP-tagged EOC cells suspended in growth medium plus diluents or 10 nM RI-3. At the indicated times, plates were accurately washed with PBS and cell-associated fluorescence was assessed by a fluorescence plate reader a fluorescence plate reader (Victor 3, Perkin Elmer), using 485 nm excitation and 535 nm emission filters. The experiments were performed three times in triplicate."}, "SKOV-3 cells [2]": {"test_system": "SKOV-3 cells", "test": "HPMC invasion by SKOV-3 cells monitored in real time", "type": "cell-based, Human", "conditions": "10 nM RI-3; xCELLigence cell index, slopes 20–24 h; quadruplicate representative of 3 replicates", "protocol": "(§2) HPMCs (5 × 10^3 cells/well) suspended in growth medium, were seeded in E-16-well plates and allow to adhere for 18–20 h until they form a confluent monolayer, prior to seeding EOC cells (2 × 10^4 cells/well) in growth medium plus/minus 10 nM RI-3. When HPMCs are challenged with invading cells, there is a drop in electrical resistance within 2–4 h which is monitored in real-time as the Cell Index changes due to the rupture of mesothelium. The experiments were performed three times in quadruplicate."}, "EOC cells": {"test_system": "EOC cells", "test": "EOC cell adhesion to and crossing of mesothelial cell monolayers (summary statement)", "type": "cell-based, human", "conditions": "EOC cells exposed to RI-3 or desensitized with an excess of SRSRY", "protocol": "as §1, §2"}, "[3]": {"conditions": "cited from earlier work", "source_text": "(§3) Human FPR1, originally identified in neutrophils, monocytes and macrophages, has been shown in recent years, to be expressed also in many non-myelocytic cells. Aberrant expression of FPR1 was detected in tumors of different origin and reported as a negative prognostic factor [29–31]. While the role of uPAR in favoring intra-abdominal dissemination of ovarian cancer cells is largely documented, no data regarding expression and possible role of FPR1 on the surface of ovarian cancer cells are currently available. In the past years, we generated synthetic peptides containing the s ..."}, "FPR1 [4]": {"test_system": "FPR1", "conditions": "ref [36], cited from earlier work", "source_text": "as §3"}, "[5]": {"test_system": "p38 MAPK and PI3K/AKT signaling cascades", "conditions": "ref [36]; cited from earlier work", "source_text": "as §3"}, "[6]": {"test_system": "sarcoma and melanoma cells", "conditions": "dose dependent, ref [36], [37]; cited from earlier work", "source_text": "as §3"}, "[7]": {"conditions": "ref [36]; cited from earlier work", "source_text": "On the other hand, despite a variety of natural and synthetic compounds that interfere with FPR1-dependent pathways antagonizing FPR1functions have been described, the majority had off-target effects, discouraging their clinical development."}, "FPR1 [8]": {"test_system": "FPR1", "conditions": "FPR1 overexpressing rat basophilic leukaemia RBL-2H3/ETFR cells; stated also as conclusion for primary EOC cells; ref [38]; cited from earlier work", "source_text": "In order to obtain primary cultures of EOC cells, representative fragments of tissue samples were fragmented and cells recovered, as described in the Methods. By enzymatic digestion of a HGSC tissue sample (patient #5), a primary cell culture expressing high levels of both uPAR and FPR1 on cell surface as shown by IHC, was obtained (Figs. 4 and 5a). Subsequent sub-cloning of isolated cell clusters (Fig. 5b) followed by five passages allowed us to obtain an adherent, homogeneous, CD326 positive cell population. These EOC cells express a considerable amount of both uPAR and FPR1 as shown by West ..."}},
  "note": "Non-standard residues stand in square brackets, D forms with d. Aib = CC(C)(N)C(=O)O",
  "data": [
    {"substance": "Ac-[dY][dR][Aib][dR]-NH2 [RI-3, retro-inverso peptide, uPAR/FPR1 antagonist]", "values": [
      {"measurement": "basal cell adhesion and adhesion to Coll-, Fn- and Lm-coated plates", "setting": "SKOV-3 cells [1]; SKOV-3, 10 nM RI-3, 2 h, BSA (basal), collagen, fibronectin, laminin, three independent experiments", "value": "neither affected basal cell adhesion, nor cell adhesion to Coll- Fn- and Lm-coated plates"},
      {"measurement": "extent of cell adhesion onto Vn with RI-3", "setting": "SKOV-3 cells [1]; SKOV-3, 10 nM RI-3, Fig. 2d (2 h, cell counting) and Fig. 2e (real time 2 h)", "value": "dramatically reduced the extent of cell adhesion onto Vn"},
      {"measurement": "reduction of EOC cell adhesion onto mesothelium", "setting": "primary EOC cells; 10 nM RI-3, after 5 min", "value": 72, "unit": "%"},
      {"measurement": "reduction of EOC cell adhesion onto mesothelium", "setting": "primary EOC cells; 10 nM RI-3, after 10 min", "value": 51, "unit": "%"},
      {"measurement": "reduction of EOC cell adhesion onto mesothelium", "setting": "primary EOC cells; 10 nM RI-3, after 20 min", "value": 47, "unit": "%"},
      {"measurement": "reduction of EOC cell adhesion onto mesothelium", "setting": "primary EOC cells; 10 nM RI-3, after 40 min", "value": 46, "unit": "%"},
      {"measurement": "capability of SKOV-3 cells to disrupt mesothelial cell monolayer", "setting": "SKOV-3 cells [2]", "value": "abrogated the capability of SKOV-3 cells to disrupt mesothelial cell monolayer"},
      {"measurement": "ability to cross mesothelial cell monolayers (abstract)", "setting": "EOC cells", "value": "losing the ability to cross them"},
      {"measurement": "stability in human serum", "setting": "[3]", "value": "stable in human serum"},
      {"measurement": "competition for binding to FPR1", "setting": "FPR1 [4]; competes with fMLF and SRSRY", "value": "competes with fMLF and SRSRY for binding to FPR1"},
      {"measurement": "SRSRY-induced FPR1 internalization", "setting": "FPR1 [4]", "value": "preventing SRSRY-induced FPR1 internalization"},
      {"measurement": "p38 MAPK and PI3K/AKT signaling cascades", "setting": "[5]", "value": "preventing SRSRY-induced FPR1 internalization as well as p38 MAPK and PI3K/AKT signaling cascades"},
      {"measurement": "concentration range for overall 50% reduction of cell invasion", "setting": "[6]", "value": "nanomolar range"},
      {"measurement": "concentration range for overall 50% reduction of cell migration", "setting": "[6]", "value": "picomolar"},
      {"measurement": "cell proliferation", "setting": "[7]", "value": "does not affect cell proliferation"},
      {"measurement": "FPR1 binding and blockade of internalization and function", "setting": "FPR1 [8]", "value": "binds to FPR1 blocking its internalization and function"}
    ]}
  ]
}
